Test results as given in patent US6737383B1, “Herbicidal oxadiazolidines” (priority 1999, dated 2004).

Columns and labels:
corn = test: Test B pre/postemergence corn; format: in vivo, Zea mays
Summary of the method: (§1)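 Response is a visual 0-to-10 score relative to untreated plants, where 0 means no effect and 10 means complete control, taken twelve to sixteen days after application. Treatments went onto soil at planting and onto foliage of 1- to 4-leaf plants, using a surfactant-containing non-phytotoxic solvent.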

crabgrass = test: Test B pre/postemergence crabgrass; format: in vivo, Digitaria sanguinalis
Summary of the method: as §1

sugar beet = test: Test B pre/postemergence sugar beet; format: in vivo, Beta vulgaris
Summary of the method: as §1

rice = test: Test B flood test rice; format: in vivo, Oryza sativa
Summary of the method: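 Plants were grown to the 2-leaf stage before treatment with test chemical, then held in a greenhouse for twelve to sixteen days. Injury was visually rated against untreated controls on a 0–10 scale, where 0 is no effect and 10 is complete control.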

blackgrass = test: Test E blackgrass; format: in vivo, Alopecurus myosuroides; conditions: Preemergence; for Blackgrass plant response rating (0 to 100 scale): Rate 250 g/ha; for Plant response rating, Blackgrass: 0 to 100 scale where 0 is no effect and 100 is complete control
green foxtail = test: Test E green foxtail; format: in vivo, Setaria viridis; conditions: Preemergence; for Green foxtail plant response rating (0 to 100 scale): Rate 250 g/ha
Italian ryegrass = test: Test E Italian ryegrass; format: in vivo, Lolium multiflorum; conditions: Preemergence; for I. Ryegrass plant response rating (0 to 100 scale): Rate 250 g/ha; for Plant response rating, I. Ryegrass: 0 to 100 scale where 0 is no effect and 100 is complete control
winter wheat [1] = test: Test E winter wheat; format: in vivo, Triticum aestivum; conditions: Preemergence; for Wheat (winter) plant response rating (0 to 100 scale): Rate 250 g/ha; for Plant response rating, Wheat (winter): 0 to 100 scale where 0 is no effect and 100 is complete control
wild oat = test: Test E wild oat; format: in vivo, Avena fatua; conditions: Preemergence; for Wild oat plant response rating (0 to 100 scale): Rate 250 g/ha; for Plant response rating, Wild oat: 0 to 100 scale where 0 is no effect and 100 is complete control
winter barley = test: Test E winter barley; format: in vivo, Hordeum vulgare; conditions: Preemergence; for Barley (winter) plant response rating (0 to 100 scale): Rate 250 g/ha; for Plant response rating, Barley (winter): 0 to 100 scale where 0 is no effect and 100 is complete control
winter wheat [2] = test: Test E winter wheat; format: in vivo, Triticum aestivum; conditions: Postemergence, 0 to 100 scale
Summary of the method: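 Greenhouse-grown plants are treated (postemergence: 1- to 4-leaf stage, sandy loam/potting mix 60:40), then evaluated visually versus untreated controls some 21 to 28 days later.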

[3] = Preemergence, Rate 62 g/ha, scale of 0 to 10 where 0 is no effect and 10 is complete control
[4] = Preemergence, Rate 250 g/ha, scale of 0 to 10 where 0 is no effect and 10 is complete control
[5] = Preemergence, Rate 500 g/ha, scale of 0 to 10 where 0 is no effect and 10 is complete control
[6] = Rate 62 g/ha, Postemergence, scale 0 to 10, 0 no effect, 10 complete control
[7] = Rate 125 g/ha, Postemergence, scale of 0 to 10 where 0 is no effect and 10 is complete control
[8] = Rate 125 g/ha, Preemergence, scale of 0 to 10 where 0 is no effect and 10 is complete control
[9] = Rate 250 g/ha, Postemergence, scale of 0 to 10 where 0 is no effect and 10 is complete control
[10] = Postemergence, Rate 125 g/ha, scale of 0 to 10 where 0 is no effect and 10 is complete control
[11] = Preemergence, Rate 125 g/ha, 0 is no effect, 10 is complete control
[12] = Preemergence, Rate 250 g/ha, scale 0 to 10, 0 is no effect, 10 is complete control
[13] = Preemergence, Rate 500 g/ha, scale 0 to 10 (0 no effect, 10 complete control)
[14] = Rate 62 g/ha, Postemergence, scale of 0 to 10 where 0 is no effect and 10 is complete control
[15] = Rate 250 g/ha, Postemergence, scale 0 to 10, 0 is no effect, 10 is complete control
[16] = Rate 500 g/ha, Postemergence, scale 0 to 10

With `CCC=CCn1c(=O)on(C(=O)N(c2ccc(F)cc2)C(C)C)c1=O` [Compound 286] the “Corn plant response rating” value (corn; [3]) was 0, the “Corn plant response rating” value (corn; [4]) was 0 and the “Plant response rating, Corn” value (corn; [5]) was 0. The “Corn plant response rating” value (corn; [6]) was 0, the “Corn plant response rating” value (corn; [7]) was 0 and the “Corn plant response rating” value (corn; [8]) was 0. The “Plant response rating, Corn” value (corn; [9]) was 0, the “Corn plant response rating” value (corn; Rate 500 g/ha, Postemergence, scale 0 to 10, 0 no effect, 10 complete control) was 0 and the “Crabgrass plant response rating” value (crabgrass; [3]) was 0. For the same molecule, the “Crabgrass plant response rating” value (crabgrass; [4]) was 10, the “Plant response rating, Crabgrass” value (crabgrass; [5]) was 10 and the “Crabgrass plant response rating” value (crabgrass; [6]) was 0. For the same molecule, the “Crabgrass plant response rating” value (crabgrass; [7]) was 0, the “Crabgrass plant response rating” value (crabgrass; [8]) was 2 and the “Plant response rating, Crabgrass” value (crabgrass; [9]) was 2. The “Sugarbeets plant response rating” value (sugar beet; [3]) was 0, the “Sugarbeets plant response rating” value (sugar beet; [4]) was 0 and the “Plant response rating, Sugarbeets” value (sugar beet; [5]) was 4. The “Sugarbeets plant response rating” value (sugar beet; [6]) was 0, the “Sugarbeets plant response rating” value (sugar beet; [7]) was 2 and the “Sugarbeets plant response rating” value (sugar beet; [8]) was 0. The “Plant response rating, Sugarbeets” value (sugar beet; [9]) was 2, the “Rice plant response rating” value (rice; Rate 62 g/ha, headed Pre-emergence (flood test species), scale 0 to 10 (0 no effect, 10 complete control)) was 0 and the “Rice plant response rating” value (rice; Rate 125 g/ha, Pre-emergence, flood test species, scale 0 to 10 where 0 is no effect and 10 is complete control) was 0. For the same molecule, the “Rice plant response rating” value (rice; Rate 250 g/ha, Pre-emergence, flood-test species, scale 0 to 10, 0 is no effect, 10 is complete control) was 0, the “Rice plant response rating” value (rice; Rate 500 g/ha, Pre-emergence, flood test species, scale 0 to 10 (0 no effect, 10 complete control)) was 0 and the “Blackgrass plant response rating (0 to 100 scale)” value (blackgrass) was 10. The “Green foxtail plant response rating (0 to 100 scale)” value (green foxtail) was 55, the “I. Ryegrass plant response rating (0 to 100 scale)” value (Italian ryegrass) was 40 and the “Wheat (winter) plant response rating (0 to 100 scale)” value (winter wheat [1]) was 40. The “Wild oat plant response rating (0 to 100 scale)” value (wild oat) was 10 and the “Barley (winter) plant response rating (0 to 100 scale)” value (winter barley) was 5.
For `CC(C)N(C(=O)n1oc(=O)n([C@@H](C)c2ccccc2)c1=O)c1ccccc1` [Compound 173], the “Corn plant response rating” value (corn; [10]) was 0, the “Corn plant response rating” value (corn; [3]) was 0 and the “Corn plant response rating (0 to 10 scale)” value (corn; [11]) was 0. The “Corn plant response rating” value (corn; [12]) was 0, the “Corn plant response rating” value (corn; [13]) was 0 and the “Corn plant response rating” value (corn; [14]) was 0. The “Plant response rating, Corn” value (corn; [15]) was 0, the “Corn plant response rating” value (corn; [16]) was 0 and the “Crabgrass plant response rating” value (crabgrass; [10]) was 4. The “Crabgrass plant response rating” value (crabgrass; [3]) was 2, the “Crabgrass plant response rating (0 to 10 scale)” value (crabgrass; [11]) was 6 and the “Crabgrass plant response rating” value (crabgrass; [12]) was 8. The “Crabgrass plant response rating” value (crabgrass; [13]) was 9, the “Crabgrass plant response rating” value (crabgrass; [14]) was 0 and the “Plant response rating, Crabgrass” value (crabgrass; [15]) was 5. For the same molecule, the “Crabgrass plant response rating” value (crabgrass; [16]) was 8, the “Sugarbeets plant response rating” value (sugar beet; [10]) was 0 and the “Sugarbeets plant response rating” value (sugar beet; [3]) was 0. For the same molecule, the “Sugarbeets plant response rating (0 to 10 scale)” value (sugar beet; [11]) was 2, the “Sugarbeets plant response rating” value (sugar beet; [12]) was 3 and the “Sugarbeets plant response rating” value (sugar beet; [13]) was 6. For the same molecule, the “Sugarbeets plant response rating” value (sugar beet; [14]) was 0, the “Plant response rating, Sugarbeets” value (sugar beet; [15]) was 0 and the “Sugarbeets plant response rating” value (sugar beet; [16]) was 5. For the same molecule, the “Plant response rating, Wheat (winter)” value (winter wheat [2]; Rate 1000 g/ha, 0 is no effect and 100 is complete control) was 60, the “Plant response rating, Wheat (winter)” value (winter wheat [2]; Rate 500 g/ha, 0 is no effect, 100 is complete control) was 40 and the “Blackgrass plant response rating (0 to 100 scale)” value (blackgrass) was 50. The “Plant response rating, Blackgrass” value (blackgrass; Rate 500 g/ha) was 70, the “Plant response rating, Blackgrass” value (blackgrass; Rate 1000 g/ha) was 98 and the “Green foxtail plant response rating (0 to 100 scale)” value (green foxtail) was 85. For the same molecule, the “Plant response rating, Green foxtail” value (green foxtail; Rate 1000 g/ha, 0 to 100 scale where 0 is no effect and 100 is complete control) was 100, the “I. Ryegrass plant response rating (0 to 100 scale)” value (Italian ryegrass) was 35 and the “Plant response rating, I. Ryegrass” value (Italian ryegrass; Rate 500 g/ha) was 45. For the same molecule, the “Plant response rating, I. Ryegrass” value (Italian ryegrass; Rate 1000 g/ha) was 98, the “Wheat (winter) plant response rating (0 to 100 scale)” value (winter wheat [1]) was 20 and the “Plant response rating, Wheat (winter)” value (winter wheat [1]; Rate 500 g/ha) was 30. For the same molecule, the “Plant response rating, Wheat (winter)” value (winter wheat [1]; Rate 1000 g/ha) was 50, the “Wild oat plant response rating (0 to 100 scale)” value (wild oat) was 50 and the “Plant response rating, Wild oat” value (wild oat; Rate 500 g/ha) was 45. The “Plant response rating, Wild oat” value (wild oat; Rate 1000 g/ha) was 50, the “Barley (winter) plant response rating (0 to 100 scale)” value (winter barley) was 30 and the “Plant response rating, Barley (winter)” value (winter barley; Rate 500 g/ha) was 40. For the same molecule, the “Plant response rating, Barley (winter)” value (winter barley; Rate 1000 g/ha) was 40.
